Here are results for four compounds from patent US4540428A (priority 1983, dated 1985).

The test system of assay [1] is soil urease. Briefly: Urea hydrolyzed as a function of time in soil at 35° C. (procedure of Example VI, FIG. 1). The format is biochemical. Particulars: 10 micrograms of urease inhibitor per gram of soil; for urease inhibiting activity at 35° C. (in words): soil at 35° C. (95° F.), period of 12 days, sampled every two days. The protocol:
The drawing is a graph of urea hydrolyzed as a function of time at 35° C. using 10 micrograms of urease inhibitor per gram of soil.
Certain compounds were evaluated to determine their effectiveness as urease inhibitors. The inhibition tests were run in a New York State soil (Cazenovia sandy loam, pH 7.2). Evaluations (run in triplicate) consisted of applying 800 micrograms of test compound in 5 mL of water and 42.8 mg urea in 1 mL of water to 20 g of air-dry soil in a glass bottle. The bottle was capped with perforated aluminum foil and incubated at 25° C. for 3 days prior to extraction with 100 mL of 2M KCl solution containing 0.5 mg of phenylmercuric acetate. The extracts were then analyzed for remaining urea using an autoanalyzer. Percent inhibition was calculated as [formula] where A is urea recovered from unincubated sample (urea added to soil and immediately extracted); B is urea recovered from inhibited sample; and C is urea recovered from the control (uninhibited sample).
Employing the procedure of Example VI, the urease inhibiting activity at 35° C. of the prior art urease inhibitor, phenyl phosphorodiamidate, and N-(2-chloroethyl)phosphoric triamide were evaluated. In the evaluation, soil samples were taken every two days and analyzed for urea content.

Assay [2] concerns soil urease. The format is biochemical. Particulars: for % Inhibition 40 microgram per gram soil: pH 7.2.
For assay [3], the system named is urease. Particulars: stated as well known; cited from earlier work.

Consider `NP(N)(=O)NCCCl` [Experiment 1, N-2-Chloroethyl Phosphoric Triamide], for which the “urease inhibiting activity at 35° C. (in words)” value in assay [1] is “excellent inhibitor”.

Turning to `NP(N)(=O)NCCCl` [Experiment 1], in assay [2], the “% Inhibition 1 microgram per gram soil” value was determined as 77% and the “% Inhibition 40 microgram per gram soil” value amounted to 100%.

`NP(N)(=O)NCCCBr` [Experiment 3]: in assay [2], the “% Inhibition 1 microgram per gram soil” value was determined as 83% and the “% Inhibition 40 microgram per gram soil” value is reported as 99%.

As to `NP(N)(=O)Oc1ccccc1` [phenyl phosphorodiamidate], the “urease inhibiting activity at 35° C. (in words)” value in assay [1] is “much less effective”. Besides, in assay [1] (soil at 35° C.), the “time to essentially complete urea hydrolysis” value is reported as “essentially complete urea hydrolysis after only six days”. The “inhibitory effect on urease at 25° C. (in words)” value in assay [3] was “excellent inhibitory effect”.
